Measured values reported in patent US4163016A, “16-Substituted prostaglandins” (Hoffmann-La Roche Inc., priority 1977, dated 1979).

Columns and labels:
[1] = tested on: conscious rat with acute gastric fistula (gastric secretion); assay: Anti-secretory activity in the conscious rat with acute gastric fistula; format: in vivo, rat (fasted female rats); details: 16 μg/Kg i.v., N 3 (A), 2 (B)
Protocol: That the compounds of this invention are active as anti-secretory and anti-ulcerogenic agents can be seen by administering the following compounds: Compound A= nat 11R-methyl-16R-fluoro-15R-hydroxy-9-oxo-prost-(Z)-5-enoic acid. Compound b= nat 11R-methyl-16R-fluoro-9,15-dioxo-prost-(Z)-5-enoic acid to rats by the following test:
The compounds were tested as gastric secretory depressants in the unanesthetized rat with acute gastric fistula. […] On the day of the experiment, water infusion through the stomach was begun for a period of 60 minutes prior to drug administration. During this baseline period, the pH of the secretory flow was about 1.5 for each animal. Individual samples were collected at 10-minute intervals during this baseline period to monitor the pH. The compound dissolved in saline was administered intravenously (i.v.), 16 μg/Kg i.v., after this baseline period and samples were continuously collected for 60 minutes. The samples of gastric contents were subsequently assayed for pH, volume, total acid content (μ Eq/ml) and total acid output for 10 minutes (μ Eq/10 minutes).

[2] = tested on: DOCA-Na Hypertensive Rat Model; assay: Oral activity on systolic blood pressure in the DOCA-Na hypertensive rat model; format: in vivo, rat (Charles River male rats); details: N 6
Protocol: That the compounds of this invention are active as blood pressure lowering agents can be seen from the administration of nat. 11R-methyl-16R-fluoro-9,15-dioxoprosta-(Z)-5-(E)-13-dienoic acid to rats by the following test:
Charles River male rats weighing 170-210 grams are used in the present study. DOCA-Na hypertension is induced in these rats by unilateral nephrectomy followed by subcutaneous implantation of a 25 mg deoxycorticosterone acetate pellet. Animals are placed in individual cages and receive 0.9% by weight sodium chloride aqueous solution and rat chow diet ad libitum. Two weeks are allowed to elapse from the time of surgery for development of hypertension, i.e. systolic blood pressure above 150 mmHg. Systolic blood pressure is measured indirectly from the tail of unanesthetized rats (restrained in holders heated for 5-10 minutes at 37°-38° C.) using a pneumatic pulse transducer (piezoelectric crystal and occluding cuff). The transducer and occluding cuff are coupled to a two-channel recorder. Control readings are taken prior to drug and at 1, 3, 6, 24, 48 and 72 hours post administration of drug. All drugs are prepared fresh in a mixture of tris(hydroxymethyl)amino methane in 95% ethanol (5% wt/V) and orally administered to rats. The placebo that was used was the mixture tris(hydroxymethyl)amino methane in ethanol without drug.

[3] = 10 min after administration, rounded figures
[4] = 10 min after administration, rounded, 0 = no effect
[5] = 10 min after administration, rounded, 0 = no effect, or increase in the hydrogen ion concentration
[6] = 20 min after administration, rounded figures
[7] = 20 min after administration, rounded, 0 = no effect
[8] = 30 min after administration, rounded figures
[9] = 40 min after administration, rounded figures
[10] = 50 min after administration, rounded figures
[11] = 60 min after administration, rounded figures
[12] = 60 min after administration, rounded, 0 = no effect

SMILES | Acid Output, % Inhibition (calculated from μ Eq/10 min period of total acid output) [1, 3] | pH, % Increment over baseline [1, 3] | Volume, % Inhibition [1, 4] | Acid Conc., % Inhibition (calculated from μ Eq/ml of total acid concentration) [1, 5] | Acid Conc., % Inhibition (calculated from μ Eq/ml of total acid concentration) [1, 6] | Acid Output, % Inhibition (calculated from μ Eq/10 min period of total acid output) [1, 6] | pH, % Increment over baseline [1, 6] | Volume, % Inhibition [1, 7] | Acid Conc., % Inhibition (calculated from μ Eq/ml of total acid concentration) [1, 8] | Acid Output, % Inhibition (calculated from μ Eq/10 min period of total acid output) [1, 8] | Volume, % Inhibition [1, 8] | pH, % Increment over baseline [1, 8] | Acid Conc., % Inhibition (calculated from μ Eq/ml of total acid concentration) [1, 9] | Acid Output, % Inhibition (calculated from μ Eq/10 min period of total acid output) [1, 9] | Volume, % Inhibition [1, 9] | pH, % Increment over baseline [1, 9] | Acid Conc., % Inhibition (calculated from μ Eq/ml of total acid concentration) [1, 10] | Acid Output, % Inhibition (calculated from μ Eq/10 min period of total acid output) [1, 10] | Volume, % Inhibition [1, 10] | pH, % Increment over baseline [1, 10] | further results
CCCC[C@@H](F)C(=O)CC[C@H]1[C@H](C)CC(=O)[C@@H]1C/C=C\CCCC(=O)O [Compound B, nat 11R-methyl-16R-fluoro-9,15-dioxo-prost-(Z)-5-enoic acid] | 40% | 2% | 9% | 33% | 6% | 22% | 2% | 30% | 11% | 15% | 4% | 2% | 2% | 14% | 11% | 2% | 15% | 20% | 16% | 2% | Acid Conc., % Inhibition (calculated from μ Eq/ml of total acid concentration) [1, 11]: 19%; Acid Output, % Inhibition (calculated from μ Eq/10 min period of total acid output) [1, 11]: 48%; pH, % Increment over baseline [1, 11]: 5%; Volume, % Inhibition [1, 12]: 35%
CCCC[C@@H](F)C(=O)/C=C/[C@H]1[C@H](C)CC(=O)[C@@H]1C/C=C\CCCC(=O)O [nat 11R-methyl-16R-fluoro-9,15-dioxoprosta-5(Z),13(E)-dienoic acid] | – | – | – | – | – | – | – | – | – | – | – | – | – | – | – | – | – | – | – | – | Systolic Blood Pressure ([2]; 1.0 mg/kg p.o., 1 h): 200±6 mmHg; Systolic Blood Pressure ([2]; 1.0 mg/kg p.o., 3 h): 205±6 mmHg; Systolic Blood Pressure ([2]; 1.0 mg/kg p.o., 6 h): 203±8 mmHg; Systolic Blood Pressure ([2]; 1.0 mg/kg p.o., 24 h): 199±6 mmHg; Systolic Blood Pressure ([2]; 1.0 mg/kg p.o., time 0 h (control reading prior to drug)): 196±6 mmHg; Systolic Blood Pressure ([2]; 5.0 mg/kg p.o., 1 h, * p<.05): 175±2 mmHg; Systolic Blood Pressure ([2]; 5.0 mg/kg p.o., 3 h, * p<.05): 167±4 mmHg; Systolic Blood Pressure ([2]; 5.0 mg/kg p.o., 6 h, * p<.05): 166±3 mmHg; Systolic Blood Pressure ([2]; 5.0 mg/kg p.o., 24 h, * p<.05): 163±4 mmHg; Systolic Blood Pressure ([2]; 5.0 mg/kg p.o., 48 h, * p<.05): 171±7 mmHg; Systolic Blood Pressure ([2]; 5.0 mg/kg p.o., 72 h): 193±6 mmHg; Systolic Blood Pressure ([2]; 5.0 mg/kg p.o., time 0 h (control reading prior to drug)): 197±3 mmHg
CCCC[C@@H](F)[C@H](O)CC[C@H]1[C@H](C)CC(=O)[C@@H]1C/C=C\CCCC(=O)O [Compound A, nat 11R-methyl-16R-fluoro-15R-hydroxy-9-oxo-prost-(Z)-5-enoic acid] | 4% | 5% | 0% | 0% | 22% | 17% | 6% | 0% | 20% | 33% | 58% | 4% | 23% | 26% | 21% | 5% | 38% | 43% | 9% | 9% | Acid Conc., % Inhibition (calculated from μ Eq/ml of total acid concentration) [1, 11]: 22%; Acid Output, % Inhibition (calculated from μ Eq/10 min period of total acid output) [1, 11]: 25%; pH, % Increment over baseline [1, 11]: 9%; Volume, % Inhibition [1, 12]: 0%
